Numbered stars: 1 amine (or outer) side, 2 acyl side, 3 side chain; on linkers, the order of the positions; unused ones are H or OH. Bridge positions count the residues as written; N and C are the ends. Square brackets hold non-standard residues; d marks the D form. Peptide text beside a SMILES is read from it. Pro(trans-4-F) = O=C(O)[C@@H]1C[C@@H](F)CN1; Bip = N[C@@H](Cc1ccc(-c2ccccc2)cc1)C(=O)O; Tpi = O=C(O)[C@@H]1Cc2c([nH]c3ccccc23)CN1; Dip = N[C@H](C(=O)O)C(c1ccccc1)c1ccccc1; X1 = O=C([C@@H]1Cc2ccccc2N1[*:1])[*:2]; 1Nal = N[C@@H](Cc1cccc2ccccc12)C(=O)O; TBMB = c1c(C[*:1])cc(C[*:3])cc1C[*:2]; NMeR = CN[C@@H](CCCNC(=N)N)C(=O)O; hArg = N=C(N)NCCCC[C@H](N)C(=O)O; 3Pal = N[C@@H](Cc1cccnc1)C(=O)O; 4Pal = N[C@@H](Cc1ccncc1)C(=O)O; Cha = N[C@@H](CC1CCCCC1)C(=O)O; Pip = O=C(O)[C@@H]1CCCCN1; Dpg = CCCC(N)(CCC)C(=O)O; Aze = O=C(O)[C@@H]1CCN1

This series in a line: Plasma stability profiling method 1 (35% plasma, MALDI-TOF, qualitative). Format: in vitro ADME, rat. As to conditions: 35% rat plasma, 37 deg C, method 1, comparative estimate. The protocol:
Three methods were employed to assess the stability of bicycles (peptides conjugated to molecular scaffolds) in plasma.
A rapid plasma stability profiling assay was developed that employed mass spectrometric detection (MALDI-TOF, Voyager DE, Applied Biosystems) of the parent mass, until the time when the parent peptide mass was no longer observable. Specifically, 200 uM of peptide was incubated in the presence of 35% rat or human plasma (Sera labs, using citrate as anticoagulant) at 37 deg C., which was supplemented with 1×PBS (derived from a 10×PBS Stock, Sigma). At various time points (i.e. t=0, 3, 24 hrs, henceafter daily up to 10 days), 2 uL of sample was added to 18 uL of 30 mM ammonium bicarbonate in a 1:1 mixture of acetonitrile:H2O. Samples were frozen at −80 deg C. until the time of analysis. For mass spectrometric analysis that determines the approximate detection window of the peptide, the acetonitrile:H2O-diluted sample of a given time point was spotted directly (0.7 uL) onto the MALDI plate. Matrix (alpha-cyanocinnamic acid, Sigma, prepared as a saturated solution in 1:1 acetonitrile:water containing 0.1% trifluoroacetic acid) was layered over the sample (1 uL). At a similar laser intensity setting on the MALDI TOF, the time could then be determined until parent peptide was no longer detectable. It should be noted that this is a qualitative assay serves to detect relative changes in plasma stability.

As for `CC(=O)N[C@H]1CSCc2cc3cc(c2)CSC[C@H](NC(=O)[C@H](CCCNC(=N)N)NC(=O)[C@H](C)NC(=O)[C@@H]2CCCN2C(=O)[C@H](Cc2cccc4ccccc24)NC(=O)[C@H](CO)NC1=O)C(=O)N[C@@H](CC(C)C)C(=O)N[C@@H](Cc1c[nH]cn1)C(=O)N[C@@H](CCC(N)=O)C(=O)N[C@@H](CC(=O)O)C(=O)N[C@@H](CC(C)C)C(=O)N[C@H](C(N)=O)CSC3` [Ac-(06-34-18) 1NAL2] (Ac-CS[1Nal]PARCLHQDLC-NH2; linker 1-7-13 via TBMB), the “Observable in rat plasma, for days” value is 2 days. Under `CC(=O)N[C@H]1CSCc2cc3cc(c2)CSC[C@H](NC(=O)[C@H](CCCNC(=N)N)NC(=O)[C@H](C)NC(=O)[C@@H]2CCCN2C(=O)[C@H](C(c2ccccc2)c2ccccc2)NC(=O)[C@H](CO)NC1=O)C(=O)N[C@@H](CC(C)C)C(=O)N[C@@H](Cc1c[nH]cn1)C(=O)N[C@@H](CCC(N)=O)C(=O)N[C@@H](CC(=O)O)C(=O)N[C@@H](CC(C)C)C(=O)N[C@H](C(N)=O)CSC3` [Ac-(06-34-18) 3,3-DPA2] (Ac-CS[Dip]PARCLHQDLC-NH2; linker 1-7-13 via TBMB) stands 2 days; under `CC(=O)N[C@H]1CSCc2cc3cc(c2)CSC[C@H](NC(=O)[C@H](CCCNC(=N)N)NC(=O)[C@H](C)NC(=O)[C@@H]2CCCN2C(=O)[C@H](Cc2cccnc2)NC(=O)[C@H](CO)NC1=O)C(=O)N[C@@H](CC(C)C)C(=O)N[C@@H](Cc1c[nH]cn1)C(=O)N[C@@H](CCC(N)=O)C(=O)N[C@@H](CC(=O)O)C(=O)N[C@@H](CC(C)C)C(=O)N[C@H](C(N)=O)CSC3` [Ac-(06-34-18) 3Pal2] (Ac-CS[3Pal]PARCLHQDLC-NH2; linker 1-7-13 via TBMB), 2 days. With `CC(=O)N[C@H]1CSCc2cc3cc(c2)CSC[C@H](NC(=O)[C@H](CCCNC(=N)N)NC(=O)[C@H](C)NC(=O)[C@@H]2CCCN2C(=O)[C@H](Cc2ccc(-c4ccccc4)cc2)NC(=O)[C@H](CO)NC1=O)C(=O)N[C@@H](CC(C)C)C(=O)N[C@@H](Cc1c[nH]cn1)C(=O)N[C@@H](CCC(N)=O)C(=O)N[C@@H](CC(=O)O)C(=O)N[C@@H](CC(C)C)C(=O)N[C@H](C(N)=O)CSC3` [Ac-(06-34-18) 4,4,BPal2] (Ac-CS[Bip]PARCLHQDLC-NH2; linker 1-7-13 via TBMB), the “Observable in rat plasma, for days” value is 2 days. Turning to `CC(=O)N[C@H]1CSCc2cc3cc(c2)CSC[C@H](NC(=O)[C@H](CCCNC(=N)N)NC(=O)[C@H](C)NC(=O)[C@@H]2C[C@@H](F)CN2C(=O)[C@H](Cc2c[nH]c4ccccc24)NC(=O)[C@H](CO)NC1=O)C(=O)N[C@@H](CC(C)C)C(=O)N[C@@H](Cc1c[nH]cn1)C(=O)N[C@@H](CCC(N)=O)C(=O)N[C@@H](CC(=O)O)C(=O)N[C@@H](CC(C)C)C(=O)N[C@H](C(N)=O)CSC3` [Ac-(06-34-18) 4FluoPro3] (Ac-CSW[Pro(trans-4-F)]ARCLHQDLC-NH2; linker 1-7-13 via TBMB), the “Observable in rat plasma, for days” value is listed as 2 days.

For `CC(=O)N[C@H]1CSCc2cc3cc(c2)CSC[C@H](NC(=O)[C@H](CCCNC(=N)N)NC(=O)[C@H](C)NC(=O)[C@@H]2CCCN2C(=O)[C@H](Cc2ccncc2)NC(=O)[C@H](CO)NC1=O)C(=O)N[C@@H](CC(C)C)C(=O)N[C@@H](Cc1c[nH]cn1)C(=O)N[C@@H](CCC(N)=O)C(=O)N[C@@H](CC(=O)O)C(=O)N[C@@H](CC(C)C)C(=O)N[C@H](C(N)=O)CSC3` [Ac-(06-34-18) 4Pal2] (Ac-CS[4Pal]PARCLHQDLC-NH2; linker 1-7-13 via TBMB), the “Observable in rat plasma, for days” value is 2 days. The same measure for `CC(=O)N[C@H]1CSCc2cc3cc(c2)CSC[C@H](NC(=O)[C@H](CCCCNC(=N)N)NC(=O)[C@H](C)NC(=O)[C@@H]2CCN2C(=O)[C@H](Cc2c[nH]c4ccccc24)NC(=O)[C@H](CO)NC1=O)C(=O)N[C@@H](CC(C)C)C(=O)N[C@@H](Cc1c[nH]cn1)C(=O)N[C@@H](CCC(N)=O)C(=O)N[C@@H](CC(=O)O)C(=O)N[C@@H](CC(C)C)C(=O)N[C@H](C(N)=O)CSC3` [Ac-(06-34-18) Aze3 HomoArg5] (Ac-CSW[Aze]A[hArg]CLHQDLC-NH2; linker 1-7-13 via TBMB): above 10 days.

As to `CC(=O)N[C@H]1CSCc2cc3cc(c2)CSC[C@H](NC(=O)[C@H](CCCNC(=N)N)N(C)C(=O)[C@H](C)NC(=O)[C@@H]2CCN2C(=O)[C@H](Cc2c[nH]c4ccccc24)NC(=O)[C@H](CO)NC1=O)C(=O)N[C@@H](CC(C)C)C(=O)N[C@@H](Cc1c[nH]cn1)C(=O)N[C@@H](CCC(N)=O)C(=O)N[C@@H](CC(=O)O)C(=O)N[C@@H](CC(C)C)C(=O)N[C@H](C(N)=O)CSC3` [Ac-(06-34-18) Aze3 NMeArg5] (Ac-CSW[Aze]A[NMeR]CLHQDLC-NH2; linker 1-7-13 via TBMB), the “Observable in rat plasma, for days” value is listed as above 10 days. Under `CC(=O)N[C@H]1CSCc2cc3cc(c2)CSC[C@H](NC(=O)[C@H](CCCNC(=N)N)NC(=O)[C@H](C)NC(=O)[C@@H]2CCCN2C(=O)[C@H](CC2CCCCC2)NC(=O)[C@H](CO)NC1=O)C(=O)N[C@@H](CC(C)C)C(=O)N[C@@H](Cc1c[nH]cn1)C(=O)N[C@@H](CCC(N)=O)C(=O)N[C@@H](CC(=O)O)C(=O)N[C@@H](CC(C)C)C(=O)N[C@H](C(N)=O)CSC3` [Ac-(06-34-18) Cha2] (Ac-CS[Cha]PARCLHQDLC-NH2; linker 1-7-13 via TBMB) stands 2 days. The same measure for `CCCC1(CCC)NC(=O)[C@@H](NC(C)=O)CSCc2cc3cc(c2)CSC[C@H](NC(=O)[C@H](CCCNC(=N)N)NC(=O)[C@H](C)NC(=O)[C@@H]2CCCN2C(=O)[C@H](Cc2c[nH]c4ccccc24)NC1=O)C(=O)N[C@@H](CC(C)C)C(=O)N[C@@H](Cc1c[nH]cn1)C(=O)N[C@@H](CCC(N)=O)C(=O)N[C@@H](CC(=O)O)C(=O)N[C@@H](CC(C)C)C(=O)N[C@H](C(N)=O)CSC3` [Ac-(06-34-18) Dpg1] (Ac-C[Dpg]WPARCLHQDLC-NH2; linker 1-7-13 via TBMB): 2 days; for `CC(=O)N[C@H]1CSCc2cc3cc(c2)CSC[C@H](NC(=O)[C@H](CCCNC(=N)N)NC(=O)[C@H](C)NC(=O)[C@@H]2Cc4ccccc4N2C(=O)[C@H](Cc2c[nH]c4ccccc24)NC(=O)[C@H](CO)NC1=O)C(=O)N[C@@H](CC(C)C)C(=O)N[C@@H](Cc1c[nH]cn1)C(=O)N[C@@H](CCC(N)=O)C(=O)N[C@@H](CC(=O)O)C(=O)N[C@@H](CC(C)C)C(=O)N[C@H](C(N)=O)CSC3` [Ac-(06-34-18) Ind3] (Ac-CSW[X1]ARCLHQDLC-NH2; linker 1-7-13 via TBMB): 2 days; for `CC(=O)N[C@H]1CSCc2cc3cc(c2)CSC[C@H](NC(=O)[C@H](CCCNC(=N)N)NC(=O)[C@H](C)NC(=O)[C@@H]2CCCN2C(=O)[C@@H]2Cc4c([nH]c5ccccc45)CN2C(=O)[C@H](CO)NC1=O)C(=O)N[C@@H](CC(C)C)C(=O)N[C@@H](Cc1c[nH]cn1)C(=O)N[C@@H](CCC(N)=O)C(=O)N[C@@H](CC(=O)O)C(=O)N[C@@H](CC(C)C)C(=O)N[C@H](C(N)=O)CSC3` [Ac-(06-34-18) NorHar2] (Ac-CS[Tpi]PARCLHQDLC-NH2; linker 1-7-13 via TBMB): 2 days. Under `CC(=O)N[C@H]1CSCc2cc3cc(c2)CSC[C@H](NC(=O)[C@H](CCCNC(=N)N)NC(=O)[C@H](C)NC(=O)[C@@H]2Cc4c([nH]c5ccccc45)CN2C(=O)[C@H](Cc2c[nH]c4ccccc24)NC(=O)[C@H](CO)NC1=O)C(=O)N[C@@H](CC(C)C)C(=O)N[C@@H](Cc1c[nH]cn1)C(=O)N[C@@H](CCC(N)=O)C(=O)N[C@@H](CC(=O)O)C(=O)N[C@@H](CC(C)C)C(=O)N[C@H](C(N)=O)CSC3` [Ac-(06-34-18) NorHar3] (Ac-CSW[Tpi]ARCLHQDLC-NH2; linker 1-7-13 via TBMB) stands 2 days; under `CC(=O)N[C@H]1CSCc2cc3cc(c2)CSC[C@H](NC(=O)[C@H](CCCNC(=N)N)NC(=O)[C@H](C)NC(=O)[C@@H]2CCCCN2C(=O)[C@H](Cc2c[nH]c4ccccc24)NC(=O)[C@H](CO)NC1=O)C(=O)N[C@@H](CC(C)C)C(=O)N[C@@H](Cc1c[nH]cn1)C(=O)N[C@@H](CCC(N)=O)C(=O)N[C@@H](CC(=O)O)C(=O)N[C@@H](CC(C)C)C(=O)N[C@H](C(N)=O)CSC3` [Ac-(06-34-18) Pip3] (Ac-CSW[Pip]ARCLHQDLC-NH2; linker 1-7-13 via TBMB), 2 days; under `CC(=O)N[C@H]1CSCc2cc3cc(c2)CSC[C@H](NC(=O)[C@H](CCCNC(=N)N)NC(=O)[C@H](CO)NC(=O)[C@@H]2CCCN2C(=O)[C@H](Cc2c[nH]c4ccccc24)NC(=O)[C@H](CO)NC1=O)C(=O)N[C@@H](CC(C)C)C(=O)N[C@@H](Cc1c[nH]cn1)C(=O)N[C@@H](CCC(N)=O)C(=O)N[C@@H](CC(=O)O)C(=O)N[C@@H](CC(C)C)C(=O)N[C@H](C(N)=O)CSC3` [Ac-(06-34-18) WPSR] (Ac-CSWPSRCLHQDLC-NH2; linker 1-7-13 via TBMB), 2 days.

The values above are taken from US11912794B2, “Modulation of structured polypeptide specificity” (BicycleRD Limited, priority 2011, dated 2024).
